Test results reported in US20250129056A1, “PROCESS FOR PREPARING HISTONE DEMETHYLASE INHIBITORS” (Celgene Corporation, priority 2021, published 2025).
Converted amounts (≈) assume the structure as drawn. Blank lines part the entries; values can stand above or below the compound they belong to.

Key:
[1] = Solubility observations in water and common organic solvents; format: physicochemical
[2] = tested on: KDM4 family of histone demethylases; conditions: cited from earlier work
[3] = Solubility of Compound 12 in common solvents (Table 5); format: physicochemical; conditions: organic solvent or mixture
Excerpt: The crystallization of Compound 12 also required optimization. Studies were undertaken to find the optimal solvent system of iPrOH/MeTHF.

solubility ([1]; in a number of common organic solvents including heptane): high
SMILES: CC(C)(C)OC(=O)NC[C@@H]1CCOc2cc(Br)ccc21 [Compound 11]

solubility ([1]; in most common solvents): poor
solubility ([1]; in water (low to neutral pH) and most common organic solvents, free acid): undetectable
solubility ([1]; in water and most common organic solvents): poor
SMILES: CC(C)c1ccc(N(C)c2ccc3c(c2)OCC[C@H]3CNc2cnccc2C(=O)O)cc1 [Compound 8, 3-({[(4R)-7-{methyl[4-(propan-2-yl)phenyl]amino}-3,4-dihydro-2H-1-benzopyran-4-yl]methyl}amino)pyridine-4-carboxylic acid]
inhibition of the KDM4 family of histone demethylases [2]: selective inhibitor

solubility ([1]; in a number of common solvents): low
solubility ([3]; solvent 1-PrOH): 5 mg/mL (≈ 12.2 mM)
solubility ([3]; solvent 2-MeTHF): 63 mg/mL (≈ 153 mM)
solubility ([3]; solvent CPMe): 26 mg/mL (≈ 63.3 mM)
solubility ([3]; solvent DMAc): 77 mg/mL (≈ 188 mM)
solubility ([3]; solvent EtOAc): 22 mg/mL (≈ 53.6 mM)
solubility ([3]; solvent HOAC): 20 mg/mL (≈ 48.7 mM)
solubility ([3]; solvent IPA): 3 mg/mL (≈ 7.31 mM)
solubility ([3]; solvent IPAc): 14 mg/mL (≈ 34.1 mM)
solubility ([3]; solvent MEK): 28 mg/mL (≈ 68.2 mM)
solubility ([3]; solvent MIBK): 17 mg/mL (≈ 41.4 mM)
solubility ([3]; solvent MTBE): 11 mg/mL (≈ 26.8 mM)
solubility ([3]; solvent MeCN): 5 mg/mL (≈ 12.2 mM)
solubility ([3]; solvent MeOH): 3 mg/mL (≈ 7.31 mM)
solubility ([3]; solvent THF): ≥ 150 mg/mL
solubility ([3]; solvent toluene): 27 mg/mL (≈ 65.8 mM)
SMILES: CC(C)c1ccc(N(C)c2ccc3c(c2)OCC[C@H]3CNC(=O)OC(C)(C)C)cc1 [Compound 12]
